Data on 23 compounds can be found in US20200031778A1, “NOVEL 5-SUBSTITUTED IMIDAZOLYLMETHYL DERIVATIVES” (Bayer CropScience Aktiengesellschaft, priority 2016, published 2020).

Series [1] in a line: Log P by HPLC on reversed phase columns (EEC directive 79/831 Annex V.A8; methods [a], [b], [c]). It is filed as physicochemical. The note with it: reversed phase HPLC column; method [a]: LC-UV, acidic range, 0.1% formic acid in water and acetonitrile as eluent (linear gradient from 10% to 95% acetonitrile). The method in brief:
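Log P derived from retention times, interpolated linearly between bracketing straight-chain alkan-2-ones (3–16 carbons) of known Log P. Eluents ran acetonitrile 10% to 95% against water with 0.1% formic acid ([a], acidic), 0.001 M ammonium acetate ([b], neutral) or 0.1% phosphoric acid ([c], acidic); UV read-out.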

A further series deals with Puccinia recondita. The experiment in a line: Example IX-A: in vivo preventive test on Puccinia recondita (brown rust on wheat). The note with it: 264 h, compounds of formula IX, 500 ppm of active ingredient, wheat plants, preventive spray, evaluated 11 days after inoculation, read-out: efficacy. The method in brief:
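Young wheat plants sprayed with compound in DMSO/acetone/Tween 80 diluted in water, inoculated 24 h later with spore suspension. Incubated 24 h at 20 °C, 100% RH, then 10 days at 20 °C, 70-80% RH. Efficacy scored 11 days post-inoculation, 0% equal to solvent-treated controls, 100% no disease.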

The subject of the next series is Septoria tritici. The experiment in a line: Example IX-B: in vivo preventive test on Septoria tritici (leaf spot on wheat). The note with it: Zymoseptoria tritici, 576 h; compounds of formula IX; 500 ppm of active ingredient; wheat plants, preventive spray; evaluated 24 days after inoculation; read-out: efficacy. The method in brief:
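Wheat seedlings sprayed preventively with compound dissolved in DMSO/acetone/Tween 80 and diluted in water; solvent-only controls. Spore suspension of S. tritici sprayed 24 h later; 72 h at 18 °C/100% RH, then 21 days at 20 °C/90% RH. Efficacy scored 24 days post-inoculation, 0% = control, 100% = no disease.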

For a further series, the system named is Sphaerotheca fuliginea. Kind of series: Example IX-C: in vivo preventive test on Sphaerotheca fuliginea (powdery mildew on cucurbits). The note with it: Podosphaera fuliginea, 360 h; compounds of formula IX; 500 ppm of active ingredient; gherkin plants, preventive spray; evaluated 15 days after inoculation; read-out: efficacy. In outline:
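Young gherkin plants sprayed with compound in DMSO/acetone/Tween 80 diluted in water, then inoculated 24 h later with Sphaerotheca fuliginea spores. Kept 72 h at 18 °C/100% RH, then 12 days at 20 °C/70-80% RH; efficacy scored 15 days post-inoculation, 0% = control, 100% = no disease.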

Another series concerns Uromyces appendiculatus. The experiment in a line: Example IX-D: in vivo preventive test on Uromyces appendiculatus (bean rust). The note with it: 264 h, compounds of formula IX, 500 ppm of active ingredient, bean plants, preventive spray, evaluated 11 days after inoculation, read-out: efficacy. On the procedure: Example IX-D: In Vivo Preventive Test on Uromyces Appendiculatus (Bean Rust)
The active ingredients are made soluble and homogenized in a mixture of Dimethyl sulfoxide/Acetone/Tween® 80 and then diluted in water to the desired concentration.
The young plants of bean are treated by spraying the active ingredient prepared as described above. Control plants are treated only with an aqueous solution of Acetone/Dimethyl sulfoxide/Tween® 80.
After 24 hours, the plants are contaminated by spraying the leaves with an aqueous suspension of Uromyces appendiculatus spores. The contaminated bean plants are incubated for 24 hours at 20° C. and at 100% relative humidity and then for 10 days at 20° C. and at 70-80% relative humidity.
The test is evaluated 11 days after the inoculation. 0% means an efficacy which corresponds to that of the control plants while an efficacy of 100% means that no disease is observed.
control plants while an efficacy of 100% means that no disease was observed.

Broadly, the chromatographic logP is lipophilicity estimated from chromatographic retention. `O=C(Cn1cncc1F)c1cnc(Oc2ccc(Cl)cc2F)cc1C(F)(F)F` [IX-95] came in with a chromatographic logP in series [1] of 2.84. In addition, the pest or weed control at 500 ppm is 70 to 79% in the series with Puccinia recondita, 70 to 79% with Septoria tritici, 90 to 100% in the series with Sphaerotheca fuliginea and 90 to 100% with Uromyces appendiculatus.

Consider `O=C(Cn1cncc1F)c1cnc(Oc2ccc(C(F)(F)F)cc2)cc1Br` [IX-111], for which, in series [1], the chromatographic logP came to 2.64. The pest or weed control at 500 ppm was 80 to 89% in the series on Puccinia recondita, 90 to 100% with Septoria tritici, 90 to 100% in the series on Sphaerotheca fuliginea and 90 to 100% in the series on Uromyces appendiculatus.

For `O=C(Cn1cncc1F)c1cnc(Oc2ccc(Cl)cc2)cc1Cl` [IX-94], the chromatographic logP in series [1] was 2.32. The pest or weed control at 500 ppm with Puccinia recondita fell in the range of 80 to 89%; in the series with Septoria tritici, 90 to 100%; with Sphaerotheca fuliginea, 90 to 100%; in the series on Uromyces appendiculatus, 90 to 100%.

In series [1], `N#Cc1cncn1CC(=O)c1ccc(Oc2ccc(Cl)cc2)cc1C(F)F` [IX-75] showed a chromatographic logP of 3.39. In addition, the pest or weed control at 500 ppm in the series on Puccinia recondita, with Septoria tritici, in the series on Sphaerotheca fuliginea and in the series on Uromyces appendiculatus was 90 to 100% each time.

Compound `N#Cc1cncn1CC(=O)c1cnc(Oc2ccc(Cl)cc2)cc1C(F)(F)F` [IX-109] displayed a chromatographic logP in series [1] of 3.17. For the same compound, the pest or weed control at 500 ppm with Puccinia recondita is 70 to 79%; in the series on Septoria tritici it was 90 to 100%; in the series on Sphaerotheca fuliginea, 90 to 100%; in the series on Uromyces appendiculatus it was 90 to 100%.

Compound `O=C(Cn1cncc1Cl)c1ccc(Oc2ccc(Cl)cc2)cc1F` [IX-45] registered a chromatographic logP in series [1] of 2.75. Besides, the pest or weed control at 500 ppm in the series on Puccinia recondita was 90 to 100%; in the series on Septoria tritici, 90 to 100%; in the series with Sphaerotheca fuliginea it was 90 to 100%; in the series on Uromyces appendiculatus, 70 to 79%.

On to `O=C(Cn1cncc1Cl)c1ccc(Oc2ccc(I)cc2)cc1Cl` [IX-13], for which, in series [1], the chromatographic logP worked out at 3.41. Besides, the pest or weed control at 500 ppm with Puccinia recondita, with Septoria tritici, in the series on Sphaerotheca fuliginea and with Uromyces appendiculatus was 90 to 100% throughout.

Turning to `O=C(Cn1cncc1Br)c1ccc(Oc2ccc(OC(F)(F)F)cc2)cc1Br` [IX-06], the chromatographic logP in series [1] turned out to be 3.53. The pest or weed control at 500 ppm with Puccinia recondita lay within 80 to 89%; in the series on Septoria tritici, 90 to 100%; with Sphaerotheca fuliginea it was 90 to 100%; in the series with Uromyces appendiculatus it was 70 to 79%.

`O=C(Cn1cncc1Cl)c1ccc(Oc2ccc(Br)cn2)cc1Cl` [IX-79] yielded a chromatographic logP in series [1] of 2.59. For the same compound, the pest or weed control at 500 ppm is 80 to 89% in the series on Puccinia recondita, 90 to 100% with Septoria tritici, 90 to 100% in the series on Sphaerotheca fuliginea and 90 to 100% in the series with Uromyces appendiculatus.

In series [1], `N#Cc1cncn1CC(=O)c1cnc(Oc2ccc(Cl)cc2)cc1Br` [IX-92] had a chromatographic logP of 3.08. Further, the pest or weed control at 500 ppm was 80 to 89% in the series on Puccinia recondita, 90 to 100% with Septoria tritici, 90 to 100% in the series with Sphaerotheca fuliginea and 80 to 89% in the series with Uromyces appendiculatus.

In series [1], `O=C(Cn1cncc1Br)c1ccc(Oc2ccc(Br)cc2)cc1Br` [IX-36] yielded a chromatographic logP of 3.16. Moreover, the pest or weed control at 500 ppm fell in the range of 80 to 89% in the series with Puccinia recondita, 90 to 100% in the series on Septoria tritici, 90 to 100% in the series on Sphaerotheca fuliginea and 90 to 100% with Uromyces appendiculatus.

On to `O=C(Cn1cncc1Cl)c1ccc(Oc2ccc(OC(F)(F)F)cc2)cc1Cl` [IX-09], for which the chromatographic logP in series [1] is 3.37. In addition, the pest or weed control at 500 ppm with Puccinia recondita, in the series on Septoria tritici, in the series with Sphaerotheca fuliginea and with Uromyces appendiculatus was 90 to 100% throughout.

In series [1], `N#Cc1cncn1CC(=O)c1ccc(Oc2ccc(I)cc2)cc1Cl` [IX-68] showed a chromatographic logP of 3.71. Further, the pest or weed control at 500 ppm in the series on Puccinia recondita, in the series on Septoria tritici, in the series on Sphaerotheca fuliginea and in the series on Uromyces appendiculatus was 90 to 100% in each case.

In the case of `N#Cc1cncn1CC(=O)c1ccc(Oc2ccc(Br)cc2)cc1C(F)(F)F` [IX-59], the chromatographic logP in series [1] was 3.65. For the same compound, the pest or weed control at 500 ppm in the series with Puccinia recondita, in the series with Septoria tritici, in the series with Sphaerotheca fuliginea and in the series on Uromyces appendiculatus was 90 to 100% each time.

In series [1], `N#Cc1cncn1CC(=O)c1ccc(Oc2ccc(Br)cn2)cc1Cl` [IX-77] came in with a chromatographic logP of 2.94. In addition, the pest or weed control at 500 ppm with Puccinia recondita, in the series with Septoria tritici, with Sphaerotheca fuliginea and in the series on Uromyces appendiculatus was 90 to 100% in each case.

For `N#Cc1cncn1CC(=O)c1ccc(Oc2ccc(Cl)cc2)cc1Br` [IX-61], the chromatographic logP in series [1] came out at 3.53. Moreover, the pest or weed control at 500 ppm in the series with Puccinia recondita is 90 to 100%; in the series with Septoria tritici, 80 to 89%; with Sphaerotheca fuliginea it was 90 to 100%; with Uromyces appendiculatus it was 90 to 100%.

Regarding `Cc1ccc(Oc2ccc(C(=O)Cn3cncc3Cl)c(Cl)c2)cc1` [IX-07], the chromatographic logP in series [1] was 3.09. The pest or weed control at 500 ppm in the series on Puccinia recondita, with Septoria tritici, in the series with Sphaerotheca fuliginea and in the series on Uromyces appendiculatus was 90 to 100% each time.

`O=C(Cn1cncc1F)c1ccc(Oc2ccc(Cl)cc2)cc1Cl` [IX-65] displayed a chromatographic logP in series [1] of 2.52. Further, the pest or weed control at 500 ppm in the series on Puccinia recondita, in the series with Septoria tritici, in the series on Sphaerotheca fuliginea and with Uromyces appendiculatus was 90 to 100% in each case.

In turn, `O=C(Cn1cncc1F)c1cnc(Oc2ccc(OC(F)(F)F)cc2)cc1C(F)(F)F` [IX-108] gave a chromatographic logP in series [1] of 2.89. In addition, the pest or weed control at 500 ppm is 80 to 89% in the series with Puccinia recondita, 90 to 100% with Septoria tritici, 90 to 100% in the series with Sphaerotheca fuliginea and 90 to 100% in the series on Uromyces appendiculatus.

`N#Cc1cncn1CC(=O)c1ccc(Oc2ccc(Br)cc2)cc1Cl` [IX-58, 1-[4-(4-bromophenoxy)-2-chloro-phenyl]-2-(5-cyanoimidazol-1-yl)ethanone]: in series [1], the chromatographic logP was 3.55. Also, the pest or weed control at 500 ppm in the series on Puccinia recondita, with Septoria tritici, in the series with Sphaerotheca fuliginea and with Uromyces appendiculatus was 90 to 100% throughout.

On to `O=C(Cn1cncc1Cl)c1ccc(Oc2ccc(Cl)cc2)cc1C(F)(F)F` [IX-30], for which, in series [1], the chromatographic logP came out at 3.37. Besides, the pest or weed control at 500 ppm was 70 to 79% in the series on Puccinia recondita, 90 to 100% with Septoria tritici, 80 to 89% with Sphaerotheca fuliginea and 90 to 100% in the series with Uromyces appendiculatus.

In series [1], `O=C(Cn1cncc1Cl)c1ccc(Oc2ccc(Br)nc2)cc1Cl` [IX-78] came in with a chromatographic logP of 2.32. Also, the pest or weed control at 500 ppm fell in the range of 80 to 89% in the series with Puccinia recondita, 90 to 100% in the series with Septoria tritici, 90 to 100% in the series on Sphaerotheca fuliginea and 90 to 100% in the series with Uromyces appendiculatus.

For `O=C(Cn1cncc1Cl)c1ccc(Oc2ccc(Br)cc2)cc1C(F)(F)F` [IX-29], the chromatographic logP in series [1] came to 3.37. Besides, the pest or weed control at 500 ppm was 90 to 100% in the series with Puccinia recondita, 90 to 100% in the series on Septoria tritici, 80 to 89% in the series with Sphaerotheca fuliginea and 80 to 89% with Uromyces appendiculatus.
